Test [1] has as its target Cys242 in human PIK3CA (157-299) (Homo sapiens (Human), UniProt P42336). Description: Covalent modification assay using MALDI-TOF MS. In kind it is biochemical. Conditions: 4 h reaction time point. The method, boiled down: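 Covalent adduct formation was read by linear-mode MALDI-TOF with sinapinic acid matrix, reported as modified-protein peak height divided by total protein peak heights. Reactions held PIK3CA (157-299) at 1 or 3.33 μM in HEPES/NaCl/MgCl2 buffer, pH 7.3, sampled after 15 min to 4 h at room temperature.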

A further test concerns pAKT in BT474 cells. Description: Cell-based pAKT HTRF assay in BT474 cells. The following applies: BT474 cells, 4 hr incubation, read-out: pAKT inhibition IC50 in BT474 cells. In outline:
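Compound titration: 3 μM downward in 3-fold steps, nine points, 4 hr on cells. Detection: lysis, then d2 plus Eu Cryptate antibody mix, room-temperature incubation of 4–24 h, and time-resolved fluorescence read at 615 nm.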

The mark [2] stands for this setting: 1 μM protein target, 1:5 protein to compound ratio (compounds 853-1279).
The mark [3] stands for this setting: 3.33 μM protein target, 1:7.5 protein to compound ratio (compounds 1-852).

Read-outs that look alike come from different tables or passages of the source.

Cys242 in human PIK3CA (157-299), sequence (P42336 157-299): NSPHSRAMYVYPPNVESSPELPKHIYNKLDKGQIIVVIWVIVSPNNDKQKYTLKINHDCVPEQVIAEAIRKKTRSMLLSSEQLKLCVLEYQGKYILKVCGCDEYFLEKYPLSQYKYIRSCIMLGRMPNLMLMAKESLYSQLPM

For the compound `C=CC(=O)N1CCn2nc(-c3nc(-c4ccc5c(c4)C(=O)N(C)C5)c4ccsc4c3-c3c(F)cc(F)cc3OCC(C)O)cc2C1C` (stereo not shown) [Compound 878], the “% of modification” value in test [1] (setting [2]) is “A (percent of modification of PIK3CA protein ≥75%)”. Besides, the IC50 (in general, the point on the concentration scale where inhibition reaches its midpoint) in the test on pAKT in BT474 cells (Compounds 10-999) is less than 100 nM.
`C=CC(=O)N1CCc2ccc(-c3nc(-c4cnc5c(c4)CNC(=O)C5)c4ccsc4c3-c3c(F)cc(F)cc3OCCOC)cc2C1` [Compound 579, (R)-3-(6-(2-acryloyl-1,2,3,4-tetrahydroisoquinolin-7-yl)-7-(2,4-difluoro-6-(2-methoxyethoxy)phenyl)thieno[3,2-c]pyridin-4-yl)-5,8-dihydro-1,6-naphthyridin-7(6H)-one]: the “% of modification” value in test [1] (setting [3]) is “D (percent of modification <25%)”. Further, in the test with pAKT in BT474 cells (Compounds 10-999), the IC50 was in the range of 1000 to 3000 nM.
The matching figures for `C=CC(=O)N1CC(n2cc(-c3nc(N4CCN5CCCC5C4)c4ccsc4c3-c3ccc(F)cc3OCCOC)cn2)C1` (stereo not shown) [Compound 123]: “A (percent of modification of PIK3CA protein ≥75%)” and 100 to 1000 nM.
In the case of `C=CC(=O)N1CCn2nc(-c3nc(-c4ccc(OCCN5CC(F)(F)C5)cc4)c4ccsc4c3-c3c(F)cc(F)cc3OCCOC)cc2C1C` (stereo not shown) [Compound 1062], the “% of modification” value in test [1] (setting [2]) is “A (percent of modification of PIK3CA protein ≥75%)”. Besides, in the test on pAKT in BT474 cells (Compounds 1000-1279), the IC50 was less than 100 nM.
For `C=CC(=O)N1CCC(n2cc(-c3nc(-c4ccc5c(c4)CS(=O)(=O)C5)c4ccsc4c3-c3ccc(F)cc3OCCOC)cn2)CC1` [Compound 61], the “% of modification” value in test [1] (setting [3]) is “A (percent of modification of PIK3CA protein ≥75%)”. In addition, in the test with pAKT in BT474 cells (Compounds 10-999), the IC50 is less than 100 nM.
As for `C=CC(=O)N1CCn2nc(-c3nc(-c4cnc5c(c4)CN(CCO)CC5)c4ccsc4c3-c3c(F)cc(F)cc3OCCOC)cc2[C@H]1C` [Compound 1160], the “% of modification” value in test [1] (setting [2]) is “A (percent of modification of PIK3CA protein ≥75%)”. In addition, in the test on pAKT in BT474 cells (Compounds 1000-1279), the IC50 is less than 100 nM.
Take `C=CC(=O)N1CC[C@H](n2cc(-c3nc(-c4ccc5c(c4)CCC(O)C5)c4ccsc4c3-c3ccc(F)cc3OCCOC)cn2)C1` (stereo partly shown) [Compound 64]: the “% of modification” value in test [1] (setting [3]) is reported as “A (percent of modification of PIK3CA protein ≥75%)”. Also, the IC50 in the test on pAKT in BT474 cells (Compounds 10-999) was less than 100 nM.
For `C=CC(=O)N1CCn2nc(-c3nc(-c4ccc5c(c4)CCN(C(C)C)C5)c4ccsc4c3-c3ccc(F)cc3OC(F)F)cc2C1` [Compound 244], in that order: “A (percent of modification of PIK3CA protein ≥75%)” and less than 100 nM.
For `C=CC(=O)N1CC(n2nc(C)c(-c3nc(-c4ccc5c(c4)CCNC5)c4ccsc4c3-c3ccc(F)cc3OC)c2C)C1` [Compound 165], the “% of modification” value in test [1] (setting [3]) is reported as “A (percent of modification of PIK3CA protein ≥75%)”. In the test with pAKT in BT474 cells (Compounds 10-999), the IC50 is less than 100 nM.
The matching figures for `C=CC(=O)N1Cc2cc(-c3nc(-c4cnn(C)c4)c4ccsc4c3-c3c(F)cc(F)cc3OC[C@@H](C)O)nn2[C@@H](C)C1` [Compound 582]: “A (percent of modification of PIK3CA protein ≥75%)” and less than 100 nM.
Turning to `C=CC(=O)N1CC[C@H](n2cc(-c3nc(-c4ccnc(N)c4)c4ccsc4c3-c3ccc(F)cc3OCC3CCNC(=O)C3)ccc2=O)C1` (stereo partly shown) [Compound 241], the “% of modification” value in test [1] (setting [3]) was “A (percent of modification of PIK3CA protein ≥75%)”. Also, the IC50 in the test on pAKT in BT474 cells (Compounds 10-999) fell in the range of 100 to 1000 nM.
For `C=CC(=O)N1Cc2cc(-c3nc(-c4ccc5c(c4)CCN(C)C5)c4ccsc4c3-c3c(F)cc(F)cc3OC[C@@H](C)O)nn2[C@@H](C)C1` [Compound 589], in that order: “D (percent of modification <25%)” and less than 100 nM.
As for `C=CC(=O)N1CCn2nc(-c3nc(-c4cnc5cn(C)nc5c4)c4ccsc4c3-c3c(F)cc(F)cc3OCCOC)cc2C1C` (stereo not shown) [Compound 912], the “% of modification” value in test [1] (setting [2]) is listed as “A (percent of modification of PIK3CA protein ≥75%)”. Moreover, in the test on pAKT in BT474 cells (Compounds 10-999), the IC50 is less than 100 nM.
On to `C=CC(=O)N1Cc2cc(-c3nc(-c4cncc(C#N)c4)c4ccsc4c3-c3c(F)cc(F)cc3OCCOC)nn2C[C@H]1C` [Compound 670], for which the “% of modification” value in test [1] (setting [3]) is listed as “A (percent of modification of PIK3CA protein ≥75%)”. The IC50 with pAKT in BT474 cells (Compounds 10-999) is less than 100 nM.
As for `C=CC(=O)N1CCn2nc(-c3nc(-c4ccc5oc(C)nc5c4)c4ccsc4c3-c3c(F)cc(F)cc3OCCO)cc2[C@@H]1C` [Compound 654], in test [1] (setting [3]), the “% of modification” value is given as “A (percent of modification of PIK3CA protein ≥75%)”. Moreover, the IC50 in the test on pAKT in BT474 cells (Compounds 10-999) was less than 100 nM.
The matching figures for `C=CC(=O)N1CCn2nc(-c3nc(-c4cnn(C)c4)c4ccsc4c3-c3ccc(F)cc3OCC3CCNC(=O)C3)cc2C1` (stereo not shown) [Compound 212]: “A (percent of modification of PIK3CA protein ≥75%)” and less than 100 nM.
`C=CC(=O)N1CCn2nc(-c3nc(-c4cnnc(N5CCN(C)CC5)c4)c4ccsc4c3-c3c(F)cc(F)cc3OCCOC)cc2C1C` (stereo not shown) [Compound 1045]: in test [1] (setting [2]), the “% of modification” value is reported as “A (percent of modification of PIK3CA protein ≥75%)”. Besides, the IC50 in the test with pAKT in BT474 cells (Compounds 1000-1279) is less than 100 nM.
For `C=CC(=O)N1Cc2cc(-c3nc(-c4ccc5c(c4)ncn5C)c4ccsc4c3-c3c(F)cc(F)cc3OCCOC)nn2C[C@H]1C` [Compound 669], the “% of modification” value in test [1] (setting [3]) is listed as “A (percent of modification of PIK3CA protein ≥75%)”. Also, the IC50 with pAKT in BT474 cells (Compounds 10-999) was less than 100 nM.
For `C=CC(=O)N1CCn2nc(-c3nc(-c4ccc5c(cnn5C)c4)c4ccsc4c3-c3c(F)cc(F)cc3OCCO)cc2[C@H]1C` [Compound 908, 1-((R)-2-((S)-7-(2,4-difluoro-6-(2-hydroxyethoxy)phenyl)-4-(1-methyl-1H-indazol-5-yl)thieno[3,2-c]pyridin-6-yl)-4-methyl-6,7-dihydropyrazolo[1,5-a]pyrazin-5(4H)-yl)prop-2-en-1-one], the “% of modification” value in test [1] (setting [2]) is “A (percent of modification of PIK3CA protein ≥75%)”. In addition, in the test with pAKT in BT474 cells (Homo sapiens, BT-474, Compounds 10-999), the IC50 was less than 100 nM.
As for `C=CC(=O)N1Cc2cc(-c3nc(-c4ccc5c(c4)CCN(C)C5)c4ccsc4c3-c3c(F)cc(F)cc3OC(C)C)nn2C(C)C1` (stereo not shown) [Compound 555], the “% of modification” value in test [1] (setting [3]) is reported as “D (percent of modification <25%)”. Also, the IC50 with pAKT in BT474 cells (Compounds 10-999) lay within 100 to 1000 nM.
Consider `C=CC(=O)N1CCn2nc(-c3nc(-c4ccc(=O)[nH]c4)c4ccsc4c3-c3ccc(F)cc3OC(C)C)cc2C1` [Compound 248], for which the “% of modification” value in test [1] (setting [3]) is “A (percent of modification of PIK3CA protein ≥75%)”. In addition, in the test with pAKT in BT474 cells (Compounds 10-999), the IC50 is less than 100 nM.
As to `C=CC(=O)N1CC(n2cc(-c3nc(-c4ccc5c(c4)CS(=O)(=O)C5)c4ccsc4c3-c3ccc(F)cc3OC)cn2)C1` [Compound 95], the “% of modification” value in test [1] (setting [3]) is “A (percent of modification of PIK3CA protein ≥75%)”. Further, the IC50 in the test on pAKT in BT474 cells (Compounds 10-999) was less than 100 nM.
`C=CC(=O)N1CCc2nc(-c3nc(-c4ccn(C)c(=O)c4)c4ccsc4c3-c3c(F)cc(F)cc3OC(C)C)sc2C1` [Compound 352]: the “% of modification” value in test [1] (setting [3]) is reported as “A (percent of modification of PIK3CA protein ≥75%)”. For the same compound, the IC50 with pAKT in BT474 cells (Compounds 10-999) is less than 100 nM.
Take `C=CC(=O)N1CCn2nc(-c3nc(-c4cccc(OCCN(C)C)c4)c4ccsc4c3-c3c(F)cc(F)cc3OCCO)cc2C1C` (stereo not shown) [Compound 1194]: the “% of modification” value in test [1] (setting [2]) was “A (percent of modification of PIK3CA protein ≥75%)”. Further, the IC50 in the test with pAKT in BT474 cells (Compounds 1000-1279) is less than 100 nM.
In the case of `C=CC(=O)N1CCc2nc(-c3nc(-c4ccc(C5(N)CCC5)cc4)c4ccsc4c3-c3c(F)cc(F)cc3OCCOC)sc2C1` [Compound 436], in test [1] (setting [3]), the “% of modification” value was “A (percent of modification of PIK3CA protein ≥75%)”. Moreover, in the test on pAKT in BT474 cells (Compounds 10-999), the IC50 lay within 100 to 1000 nM.
On to `C=C(F)C(=O)N1CCn2nc(-c3nc(-c4ccc5c(c4)CCN(C)C5)c4ccsc4c3-c3c(F)cc(F)cc3OC(C)C)cc2C1` [Compound 342], for which, in test [1] (setting [3]), the “% of modification” value is recorded as “B (50%<percent of modification <75%)”. Also, the IC50 with pAKT in BT474 cells (Compounds 10-999) was less than 100 nM.

(Values after patent US20250230138A1, “COMPOUNDS HAVING A T-STRUCTURE FORMED BY AT LEAST FOUR CYCLES FOR USE IN THE TREATMENT OF CANCER AND OTHER INDICATIONS” (TheRas, Inc., priority 2022, published 2025).)
